Experimental data taken from publication PMC4237514, “Novel amino-β-lactam derivatives as potent cholesterol absorption inhibitors” (European Journal of Medicinal Chemistry, 2014).

What was measured:
Assay type in all cases: cell-based
[1] = MTT cytotoxicity assay in MDCKII wild type cells; conditions: dog, MDCKII wild type cells, read-out: LC50, MDCKII
Method: (§1) Cytotoxicity of amino alcohols 5, 6 and their diastereoisomeric mixture 5/6 was analyzed using MTT cell proliferation assay and the LC50 values were determined in MDCKII wild type, hNPC1L1/MDCKII, and HepG2 cells (Table 2). MDCKII cells stably expressing human Niemann-Pick C1-like protein 1 (hNPC1L1/MDCKII) (Figure S1) are a pharmacologically validated system for investigating NPC1L1-mediated cholesterol uptake. The LC50 values were higher than 100 μM and considered nontoxic in all three cell lines. […] In addition, we tested the in vitro cytotoxicity of ezetimibe 1 and compounds 5, 6, and 5/6 (70:30) in combination with micelles and found all LC50 values to be above 100 μM (Figure S2).
(§2) Madin–Darby Canine Kidney II (MDCKII) cells, MDCKII cells stably expressing human NPC1L1 (hNPC1L1/MDCKII), and human HepG2 liver cells were maintained in DMEM (Dulbecco's Modified Eagle Medium, Invitrogen, USA) containing 100 units/mL penicillin and 100 μg/mL streptomycin supplemented with 10% FCS (Sigma–Aldrich, Germany). The cells were grown at 37 °C in a humidified 5% CO2 incubator. Stable transfection of MDCKII cells with human NPC1L1 protein was performed using Lipofectamine LTX (Invitrogen, USA) according to the manufacturer's protocol. Selection with 1 mg/mL G418 (Sigma–Aldrich, Germany) was started 2 days after transfection. The concentration of G418 was decreased to 500 μg/mL after 14 days. Stably transfected cells were maintained in DMEM containing 100 units/mL penicillin and 100 μg/mL streptomycin supplemented with 10% FCS and 500 μg/mL G418.
(§3) MDCKII, hNPC1L1/MDCKII, and HepG2 cells were seeded in 96-well microtiter plates on day 0 at densities of 3000 cells/well. On day 1, tested compounds (73 mM stock solution in DMSO) were added in five consecutive 10-fold dilutions (10^−8 to 10^−4 mol/L) and incubated for 72 h. Cytotoxicity of the compounds was assessed on day 4 by the MTT cell proliferation assay (Sigma–Aldrich, Germany) which detects mitochondrial dehydrogenase activity in viable cells. The results are expressed as LC50 and the values for each compound were calculated from dose–response curves using linear regression analysis. Each concentration was tested in quadruplicate in three independent experiments. Toxicity of the compounds in combination with micelles was also tested using the same method. MDCKII and hNPC1L1/MDCKII were seeded in 96-well microtiter plates (150 μL medium/well) at a density of 2 × 10^5 cells/mL medium 24 h before the experiment. Micelles were prepared according to the modified method reported by Field et al.. In brief, 0.25 mM oleic acid, 50 μM cholesterol, 10 μM compactin, 50 μM mevalonate, 5 mM Na-taurocholate (Sigma–Aldrich, Germany) in DMEM/10% FCS were mixed and sonicated. Following the micellar formation, compounds 1, 5, 6, and 5/6 (70:30) (73 mM stock solution in DMSO) were added to the medium and vortexed to obtain the final concentrations of the compounds (25, 50, 100, 150, 200 μM) and applied to the cells for 1 h. Thereafter, cytotoxicity was determined using the MTT assay.

[2] = MTT cytotoxicity assay in HepG2 cells; conditions: human, read-out: LC50, HepG2
Method: as §1, §2
as §3, with “Following the micellar formation, compounds 1, 5, 6, and 5/6 (70:30) (73 mM stock solution in DMSO) were added to the medium and vortexed to obtain the final concentrations of the compounds (25, 50, 100, 150, 200 μM) and applied to the cells for 1 h.” left out

[3] = MTT cytotoxicity in combination with micelles; conditions: dog, MDCKII wildtype and hNPC1L1/MDCKII cells, Figure S2, read-out: LC50 in combination with micelles
Method: as §3
Figure S2. In vitro cytotoxicity of the compounds 5, 6, and 5/6 (70:30) in combination with micelles. Cytotoxicity of the newly synthesized compounds was determined in (A) MDCKII wildtype and (B) hNPC1L1/MDCKII cells. The cells were incubated with the indicated concentrations of the compounds in Medium B (0.25 mM oleic acid, 50 μM free cholesterol, 10 μM compactin, 50 μM mevalonate, 5 mM Na-taurocholate in DMEM supplemented with 5% LPDS) for 1 h. The results are expressed as percentage of the survival of cells treated with the compound compared to untreated cells. Data represent mean ± S.E.M. of three independent experiments.

Row | SMILES | CC50 at 72 h [1] | CC50 at 72 h [2] | CC50 at 1 h [3] | CC50 at 96 h ([2]; 72 h)
1 | O=C1[C@H](NCC(O)c2ccc(F)cc2)[C@@H](c2ccc(O)cc2)N1c1ccc(F)cc1 (mixture of isomers) [5/6 (70:30), (3R,4R)-3-[(2R/S)-2-(4-fluorophenyl)-2-hydroxyethylamino]-1-(4-fluorophenyl)-4-(4-hydroxyphenyl)azetidin-2-one] | > 100 µM | > 100 µM | > 100 µM | 
2 | O=C1[C@H](CC[C@H](O)c2ccc(F)cc2)[C@@H](c2ccc(O)cc2)N1c1ccc(F)cc1 [Compound 1, ezetimibe, reference compound] | > 100 µM |  | > 100 µM | 69.7 µM
3 | O=C1[C@H](NC[C@H](O)c2ccc(F)cc2)[C@@H](c2ccc(O)cc2)N1c1ccc(F)cc1 [Compound 5] | > 100 µM | > 100 µM | > 100 µM | 
4 | O=C1[C@H](NC[C@@H](O)c2ccc(F)cc2)[C@@H](c2ccc(O)cc2)N1c1ccc(F)cc1 [Compound 6, (3R,4R)-3-[(2S)-2-(4-fluorophenyl)-2-hydroxyethylamino]-1-(4-fluorophenyl)-4-(4-hydroxyphenyl)azetidin-2-one] | > 100 µM | > 100 µM | > 100 µM | 
